≈ marks a conversion by molar mass, not a printed value. Entries after “also recorded” stand apart in the source; their conditions may differ. Like-named read-outs stand apart in the source and are kept apart here. Where a SMILES comes first, the peptide text is derived from it.
Tests used:
[1] = tested on: Escherichia coli (ATCC 25922); type: cell-based
Procedure: (§1) Antimicrobial and Hemolytic Assays. Antimicrobial susceptibility testing against Staphylococcus aureus (ATCC 29213), Escherichia coli (ATCC 25922), and Pseudomonas aeruginosa (ATCC 27853) was performed using a modification of the National Committee for Clinical Laboratory Standards microdilution broth assay (22). Mueller-Hinton broth (BBL) was used for diluting the peptide stock solution and for diluting the bacterial inoculum. The inoculum was prepared from mid-logarithmic phase cultures. […] The final concentration of peptide solution ranged-from 0.25 to 256 μg/mL in two-fold dilutions. The final concentration of bacteria in the wells was 5×10^5 CFU/mL. Peptides were tested in duplicate. In addition to the test peptide, three standard peptides and a non-treated growth control were included to validate the assay. The microtiter plates were incubated overnight at 37° C. and the absorbance was measured at 600 nm. […] After incubation at 37° C. for 30 min, the suspension was centrifuged at 10,000×g for 10 min and the absorbance at 400 nm was measured.

[2] = tested on: Pseudomonas aeruginosa (ATCC 27853); type: cell-based
Procedure: as §1

[3] = tested on: Staphylococcus aureus (ATCC 29213); type: cell-based
Procedure: as §1

[4] = tested on: Candida albicans (ATCC 14053)
Procedure: Antimicrobial and Hemolytic Assays. Antimicrobial susceptibility testing against Staphylococcus aureus (ATCC 29213), Escherichia coli (ATCC 25922), and Pseudomonas aeruginosa (ATCC 27853) was performed using a modification of the National Committee for Clinical Laboratory Standards microdilution broth assay (22). Mueller-Hinton broth (BBL) was used for diluting the peptide stock solution and for diluting the bacterial inoculum. The inoculum was prepared from mid-logarithmic phase cultures. Microtiter plate wells received aliquots-of 100 μL each of the inoculum and peptide dilution. The final concentration of peptide solution ranged-from 0.25 to 256 μg/mL in two-fold dilutions. The final concentration of bacteria in the wells was 5×10^5 CFU/mL. Peptides were tested in duplicate. In addition to the test peptide, three standard peptides and a non-treated growth control were included to validate the assay. The microtiter plates were incubated overnight at 37° C. and the absorbance was measured at 600 nm. […] After incubation at 37° C. for 30 min, the suspension was centrifuged at 10,000×g for 10 min and the absorbance at 400 nm was measured. Complete hemolysis was determined by adding 0.2% Triton X-100 in place of the peptide.
Antimicrobial susceptibility testing against Escherichia coli (ATCC 25922), Staphylococcus aureus (ATCC 29213), Pseudomonas aeruginosa (ATCC 27853), and Candida albicans (ATCC 14053) is performed using a modification of the National Committee for Clinical Laboratory Standards microdilution broth assay. Mueller-Hinton broth (BBL) is used for diluting the peptide stock solution and for diluting the bacterial inoculum. The inoculum is prepared from midlogarithmic phase cultures at an approximate concentration of 10^6 CFU/mL. Microtiter plate wells receive aliquots of 0.1 mL each of the inoculum and peptide dilution. The final concentration of the peptide solution ranges from 0.25 to 256 μg/mL in 2-fold dilutions. The microtiter plates are incubated overnight at 37° C.

[5] = tested on: human erythrocytes; test: Hemolysis of human erythrocytes; type: cell-based
Procedure: as §1

[6] = Peptide-induced leakage from calcein-loaded LUV
Procedure: Peptide-Induced Leakage from Calcein-Loaded LUV. The ability of the peptides to release calcein (MW 623) from LUV of varying lipid composition was compared. LUV were prepared as above, except that-the buffer consisted of 50 mM HEPES, 100 mM NaCl, 0.3 mM EDTA, 80 mM calcein, pH 7.4. Calcein-loaded vesicles were separated from free calcein by size-exclusion chromatography using a Sephadex G-50 column and calcein-free buffer. Calcein leakage was monitored using a Perkin-Elmer LS-500 luminescence spectrometer by measuring the time-dependent increase in fluorescence of calcein (excitation=490 nm, emission=520 nm). LUV containing 8 nmoles of lipid were added to 1.5 mL of buffer in a stirred cuvet at 25° C. An aliquot of peptide was added to achieve the desired lipid-to-peptide ratio (256 to 8). Complete leakage was determined by the addition of 20 μL of 10% Triton X-100. Each value represents at least nine different measurements using at least three different LUV preparations.

Row | Structure (SMILES) | Minimum Inhibitory Concentration, E. coli ([1]; ATCC 25922) [µg/mL] | Minimum Inhibitory Concentration, P. aeruginosa ([2]; ATCC 27853) [µg/mL] | Minimum Inhibitory Concentration, S. aureus ([3]; ATCC 29213) [µg/mL] | Minimum Inhibitory Concentration, C. albicans ([4]; ATCC 14053) [µg/mL] | % Hemolysis (500 μg/mL) ([5]; red cells of human, 500) [%] | MIC E. coli ([1]; ATCC 25922) [µg/mL] | MIC Pseud. aerug ([2]; ATCC 27853) [µg/mL] | MIC Staph. aureus ([3]; ATCC 29213) [µg/mL] | calcein leakage from LUV (in words) ([6]; 4:1 POPE/POPG LUV) | calcein leakage from LUV (in words) ([6]; POPC (PC) LUV) | Minimum Inhibitory Concentration, E. coli ([1]; Table 2, overnight at 37° C.) [µg/mL] | MIC E. coli ([1]; Table 4) [µg/mL] | Minimum Inhibitory Concentration, P. aeruginosa ([2]; Table 2, overnight at 37° C.) [µg/mL] | MIC Pseud. aerug ([2]; Table 4) [µg/mL] | Minimum Inhibitory Concentration, S. aureus ([3]; Table 2, overnight at 37° C.) [µg/mL] | MIC Staph. aureus ([3]; Table 4) [µg/mL] | Minimum Inhibitory Concentration, C. albicans ([4]; Table 2) [µg/mL] | % Hemolysis (500 μg/mL) ([5]; 500 μg/mL peptide, 5% human erythrocytes, 37° C., 30 min) [%] | calcein leakage from LUV (in words) ([6]; POPC/POPG LUV, all ratios (1:1 to 4:1))
1 | CC[C@H](C)[C@H](NC(=O)CN)C(=O)NCC(=O)N[C@@H](CCCCN)C(=O)N[C@@H](Cc1ccccc1)C(=O)N[C@@H](CC(C)C)C(=O)N[C@@H](Cc1c[nH]cn1)C(=O)N[C@@H](CO)C(=O)N[C@@H](C)C(=O)N[C@@H](CCCCN)C(=O)N[C@@H](CCCCN)C(=O)N[C@@H](Cc1ccccc1)C(=O)NCC(=O)N[C@@H](CCCCN)C(=O)N[C@@H](C)C(=O)N[C@@H](Cc1ccccc1)C(=O)N[C@H](C(=O)NCC(=O)N[C@@H](C)C(=O)N[C@H](C(=O)N[C@@H](CCSC)C(=O)N[C@@H](CC(N)=O)C(=O)N[C@@H](CO)C(N)=O)[C@@H](C)CC)C(C)C [A19-Magainin 2-NH2, reference compound] (H-GIGKFLHSAKKFGKAFVGAIMNS-NH2) | 8 | 16 | 64 | 128 | 29 | – | – | – | – | – | – | – | – | – | – | – | – | – | –
2 | CC(C)C[C@H](NC(=O)CNC(=O)[C@H](C)NC(=O)[C@H](CC(C)C)NC(=O)[C@H](CCCCN)NC(=O)[C@H](CCCCN)NC(=O)[C@H](C)NC(=O)[C@H](CC(C)C)NC(=O)CNC(=O)[C@H](C)NC(=O)[C@H](CC(C)C)NC(=O)[C@H](CCCCN)NC(=O)[C@H](CCCCN)NC(=O)[C@H](C)NC(=O)[C@H](CC(C)C)NC(=O)CNC(=O)[C@H](C)NC(=O)[C@H](CC(C)C)NC(=O)[C@@H](N)CCCCN)C(=O)N[C@@H](C)C(=O)N[C@@H](CCCCN)C(N)=O [(KLAGLAK)3-NH2, KLAGLAKKLAGLAKKLAGLAK -NH2] (H-KLAGLAKKLAGLAKKLAGLAK-NH2) | 8 | 128 | 16 | 64 | 9 | – | – | – | – | – | – | – | – | – | – | – | – | – | –
3 | CC[C@H](C)[C@H](NC(=O)[C@H](CCCCN)NC(=O)CNC(=O)[C@H](C)NC(=O)[C@@H](NC(=O)[C@H](CCCCN)NC(=O)[C@H](C)NC(=O)[C@@H](NC(=O)[C@H](CCCCN)NC(=O)CNC(=O)[C@H](C)NC(=O)[C@@H](NC(=O)[C@H](CCCCN)NC(=O)[C@H](C)NC(=O)[C@@H](NC(=O)[C@H](CCCCN)NC(=O)CNC(=O)[C@H](C)NC(=O)[C@@H](NC(=O)[C@@H](N)CCCCN)[C@@H](C)CC)[C@@H](C)CC)[C@@H](C)CC)[C@@H](C)CC)[C@@H](C)CC)C(=O)N[C@@H](C)C(N)=O [(KIAGKIA)3-NH2, KIAGKIAKIAGKIAKIAGKIA -NH2, reference compound] (H-KIAGKIAKIAGKIAKIAGKIA-NH2; N-terminus assumed) | 8 | 32 | 8 | 64 | 9 | 8 (≈ 3.88 µM) | 32 (≈ 15.5 µM) | 8 (≈ 3.88 µM) | most potent | not very effective | – | – | – | – | – | – | – | – | –
4 | CC[C@H](C)[C@H](NC(=O)[C@H](CCCCN)NC(=O)[C@H](C)NC(=O)CNC(=O)[C@@H](NC(=O)[C@H](CCCCN)NC(=O)[C@@H](NC(=O)[C@H](CCCCN)NC(=O)[C@H](C)NC(=O)CNC(=O)[C@@H](NC(=O)[C@H](CCCCN)NC(=O)[C@@H](NC(=O)[C@H](CCCCN)NC(=O)[C@H](C)NC(=O)CNC(=O)[C@@H](NC(=O)[C@@H](N)CCCCN)[C@@H](C)CC)[C@@H](C)CC)[C@@H](C)CC)[C@@H](C)CC)[C@@H](C)CC)C(N)=O [(KIGAKI)3-NH2, K I G A K I K I G A K I K I G A K I -NH2] (H-KIGAKIKIGAKIKIGAKI-NH2) | – | – | – | – | – | – | – | – | most potent | not very effective; also recorded: low lytic activity | 8 | 8 (≈ 4.33 µM) | 32 | 32 (≈ 17.3 µM) | 16 | 8 (≈ 4.33 µM) | 64 | 3 | least potent
5 | CC[C@H](C)[C@H](NC(=O)CN)C(=O)NCC(=O)N[C@@H](CCCCN)C(=O)N[C@@H](Cc1ccccc1)C(=O)N[C@@H](CC(C)C)C(=O)N[C@@H](CCCCN)C(=O)N[C@@H](CCCCN)C(=O)N[C@@H](C)C(=O)N[C@@H](CCCCN)C(=O)N[C@@H](CCCCN)C(=O)N[C@@H](Cc1ccccc1)C(=O)NCC(=O)N[C@@H](CCCCN)C(=O)N[C@@H](C)C(=O)N[C@@H](Cc1ccccc1)C(=O)N[C@H](C(=O)N[C@@H](CCCCN)C(=O)N[C@H](C(=O)N[C@@H](CC(C)C)C(=O)N[C@@H](CCCCN)C(=O)N[C@@H](CCCCN)C(N)=O)[C@@H](C)CC)C(C)C [MSI-78, reference compound] (H-GIGKFLKKAKKFGKAFVKILKK-NH2) | 8 | 4 | 8 | 64 | 9 | – | – | – | – | – | – | – | – | – | – | – | – | – | –
6 | CC[C@H](C)[C@H](NC(=O)CN)C(=O)NCC(=O)N[C@@H](CCCCN)C(=O)N[C@@H](Cc1ccccc1)C(=O)N[C@@H](CC(C)C)C(=O)N[C@@H](Cc1c[nH]cn1)C(=O)N[C@@H](CO)C(=O)N[C@@H](C)C(=O)N[C@@H](CCCCN)C(=O)N[C@@H](CCCCN)C(=O)N[C@@H](Cc1ccccc1)C(=O)NCC(=O)N[C@@H](CCCCN)C(=O)N[C@@H](C)C(=O)N[C@@H](Cc1ccccc1)C(=O)N[C@H](C(=O)NCC(=O)N[C@@H](CCC(=O)O)C(=O)N[C@H](C(=O)N[C@@H](CCSC)C(=O)N[C@@H](CC(N)=O)C(=O)N[C@@H](CO)C(N)=O)[C@@H](C)CC)C(C)C [Magainin 2-NH2, GIGKFLHSAKKFGKAFVGEIMNS -NH2, reference compound] (H-GIGKFLHSAKKFGKAFVGEIMNS-NH2) | 64 | 256 | 256 | >256 | 2 | – | – | – | – | – | – | – | – | – | – | – | – | – | –

Reference: patent publication US20040249122A1, “Cationic, amphipathic beta-sheet peptides and uses thereof” (priority 2003, published 2004)
